# From article PMC5902495, “Synthesis of Symmetrical Tetrameric Conjugates of the Radiolanthanide Chelator DOTPI for Application in Endoradiotherapy by Means of Click Chemistry” (Frontiers in Chemistry, 2018)
# What was measured:
# [1] = Stability and protonation constants of Cu^II complexes (spectrophotometry, pH-potentiometry); format: physicochemical; conditions: 25°C, 0.15 M NaCl
# Procedure: Stability constant of Cu(DOTPI) complex was determined by spectrophotometry, studying the Cu^II-DOTPI systems at the absorption band of Cu^II-complex at [H^+] = 0.01– 0.2 M over the wavelength range of 400–800 nm. Concentrations of Cu^II and DOTPI were 1 mM. The H^+ concentration in the samples was adjusted by addition of calculated amounts of 2.0 M HCl, while ionic strength was not constant in these samples. Samples were kept at 25°C for a week. Absorbance values were determined at 9 wavelengths (550, 575, 600, 625, 650, 675, 700, 725, and 750 nm). For calculation of stability and protonation constants of Cu(DOTPI), molar absorptivities of CuCl2, and Cu(HxL) species (wherein x = 0, 1, 2 …5) were determined by recording the spectra of 1.0 × 10^−3, 2.0 × 10^−3 and 3.0 × 10^−3 M solutions of CuCl2 and Cu(DOTPI) in the pH range of 1.7–11.7. The protonation constants of the complexes Cu(DOTPI) and the stability and protonation constants of the dinuclear Cu2(DOTPI) complexes were determined by pH-potentiometric titrations, made at 1:1 and 2:1 metal to ligand concentration ratios.
# The stability constant of the Cu(DOTPI(Chx)4) complex has been determined by spectrophotometry with the use of competition reactions between DOTPI(Chx)4 and EDTA for the Cu^2+ at pH = 5.0. The concentration of Cu(EDTA) was 0.2 mM, while that of the DOTPI(Chx)4 was varied between 0.1 and 1.0 mM (5 samples). The samples were kept at 25°C for 2 weeks. The absorbance values and the molar absorptivities of CuCl2, Cu(DOTPI(Chx)4), and Cu(EDTA) have been determined at 11 wavelength (300, 304, 308, 312, 316, 320, 324, 328, 332, 336, and 340 nm) values between 300 and 340 nm. The molar absorptivities of CuCl2, Cu(DOTPI(Chx)4), and Cu(EDTA) were deteremined in 0.05, 0.1, 0.2, 0.3, and 0.4 mM solutions. The absorbance and pH values were determined in the samples after the equilibrium was reached (the time needed to reach the equilibria was determined by spectrophotometry). The spectrophotometric measurements were made with the use of 1.0 cm cells with a Cary 1E spectrophotometer at 25°C. The protonation constants of Cu(DOTPI(Chx)4) complex were determined by pH-potentiometric titrations at 1:1 metal to ligand molar ratio.
# For pH measurements and titrations, a Metrohm 785 DMP Titrino titration workstation and a Metrohm-6.0233.100 combined electrode were used. Equilibrium measurements were carried out at a constant ionic strength (0.15 M NaCl) in 6 mL samples at 25°C. The solutions were stirred, and constantly purged with N2. The titrations were performed in a pH range of 1.7–11.7. KH-phthalate (pH = 4.005) and borax (pH = 9.177) buffers were used to calibrate the pH meter. For calculation of [H^+] from measured pH values, the method proposed by Irving et al. was used (Irving et al., [1967]). A 0.01 M HCl solution was titrated with the standardized NaOH solution in the presence of 0.1 M NaCl. Differences between the measured (pHread) and calculated pH (–log[H^+]) values were used to obtain the equilibrium H^+ concentration from the pH values, measured in the titration experiments. For the equilibrium calculations, the stoichiometric water ionic product (pKw) is also needed to calculate [H^+] values in basic conditions. […] For the calculation of the equilibrium constants the program PSEQUAD (Zekany and Nagypal, [1985]) was used.
# 2. Protonation and complexation equilibria of DOTPI and
# The protonation processes of the DOTPI and DOTPI(Chx)4, ligands have been studied by pH-potentiometry. The protonation constants (logKiH) of ligands are defined according to Eq. (1).
# The stability and protonation constants of DOTPI and DOTPI(Chx)4 complexes with several metal ions were determined by pH-potentiometric and UV/Vis spectrophotometric, methods.
# The stability and protonation constants of the metal complexes formed with the DOTPI and […]
# [2] = 25°C, I = 0.1 M Me4NCl, ref Šimeček et al., [2013], cited from earlier work
# [3] = 25°C, I = 0.1 M Me4NCl; ref Lázár et al., [1991]; cited from earlier work
# [4] = 25°C, I = 0.1 M Me4NCl; ref Lázár et al., [1991]; cited from earlier work; remark: listed apart in the source
# [5] = 25°C, I = 0.1 M Me4NCl; ref Lázár et al., [1991]; cited from earlier work; remark: listed apart in the source
structure (smiles),measurement,setting,value
"O=C(O)CCP(=O)(O)CN1CCN(CP(=O)(O)CCC(=O)O)CCN(CP(=O)(O)CCC(=O)O)CCN(CP(=O)(O)CCC(=O)O)CC1 [DOTPI, 1,4,7,10-tetraazacyclododecane-1,4,7,10-tetrakis[methylene(2-carboxyethylphosphinic acid)]]",protonation constant Cu2LH,[1],5.04 (3)
same,protonation constant Cu2LH2,[1],4.71 (5)
same,protonation constant CuH2L,[1],5.07 (1)
same,protonation constant CuH3L,[1],4.49 (2)
same,protonation constant CuH4L,[1],4.20 (2)
same,protonation constant CuH5L,[1],2.35 (3)
same,protonation constant CuHL,[1],5.68 (2)
same,stability constant of dinuclear complex Cu2L,[1],4.49 (6)
same,Σlog KiH (total basicity),[2]; distant carboxylate groups of DOTPI not considered,24.91
same,log K1H,[2],11.58
same,log K2H,[2],8.90
same,log K3H,[2],5.65
same,log K4H,[2],4.98
same,log K5H,[2],4.61
same,log K6H,[2],4.07
same,log K7H,[2],3.12
same,log K8H,[2],1.31
same,"logKML, CaL",[3],12.48
same,"logKML, CuL",[4],23.11
same,"logKML, ZnL",[5],18.57
